Data published in publication PMC10384408, “Anticancer Tungstenocenes with a Diverse Set of (O,O–), (O,S–) and (O,N–) Chelates—A Detailed Biological Study Using an Improved Evaluation via 3D Spheroid Models” (Pharmaceutics, 2023).
Several values for one entry are separate records, joined by “and”; a condition that tells them apart may be missing. Equal values may be shown once.

Experiments:
[1] = system: CH1/PA-1 (ovarian teratocarcinoma) cells; assay: MTT cytotoxicity assay, CH1/PA-1 monolayer; type: cell-based, human; conditions: exposure time 96 h, mean ± SD
Protocol: (§1) CH1/PA-1 (ovarian teratocarcinoma), SW480 (colon carcinoma) and A549 (non-small cell lung cancer) cells were maintained as described in the reference. IMR-90 human fetal lung fibroblasts (from the European Collection of Authenticated Cell Cultures, Porton Down, Salisbury, UK) were cultured in Stable Cell^TM DMEM/F12 supplemented with 0.01 mg/mL human recombinant insulin (both purchased from Sigma-Aldrich) and 10% fetal bovine serum (FBS, BioWest, Nuaillé, France). Human colon carcinoma cell lines HCT116 and HT29 (both kindly provided by the Institute of Cancer Research, Department of Medicine I, Medical University of Vienna, Austria) were cultured in McCoy’s 5a medium supplemented with 4 mM L-glutamine (both purchased from Sigma-Aldrich) and 10% FBS. MCF-7 human breast adenocarcinoma cells (kindly provided by M. Ogris, Department of Pharmaceutical Sciences, University of Vienna, Austria) were maintained in DMEM (high glucose) supplemented with 4 mM L-glutamine, 0.1 mg/mL human insulin (all purchased from Sigma-Aldrich) and 10% FBS. All cell lines were grown as monolayers in 75 cm^2 culture flasks (CytoOne, Starlab, Hamburg, Germany) at 37 °C in a humidified atmosphere containing 5% CO2.
(§2) Exponentially growing cells were plated into 96-well microculture plates (CytoOne, tissue culture treated, Starlab, Hamburg, Germany) in densities of 1 × 10^3 CH1/PA-1, 2 × 10^3 SW480, 3 × 10^3 A549 and 7 × 10^3 IMR-90 cells per well (each in 100 µL). After a 24 h preincubation, drugs were added in serial dilution to give a final volume of 200 µL/well and exposed for 96 h. At the end of the exposure, the drug solutions were replaced by 100 µL RPMI 1640/MTT mixture (7:1 ratio). MTT (3-(4,5-dimethylthiazol-2-yl)-2,5-diphenyl-2H-tetrazolium bromide), (Acros Organics, Geel, Belgium) solution was prepared in phosphate-buffered saline (5 mg/mL) and mixed with RPMI1640 medium supplemented with 4 mM L-glutamine (both from Sigma-Aldrich) and 10% FBS. After 4 h incubation, the formazan crystals were solubilized in 150 µL of DMSO per well. Absorbance was measured at 550 nm (and at 690 nm as a reference) with a microplate reader (ELx808, BioTek, Winoosky, VT, USA) and Gen5^TM 3.08 software (BioTek). The 50% inhibitory concentrations (IC50) relative to untreated controls were interpolated from concentration-effect curves. At least three biologically and technically independent experiments were performed.

[2] = system: HT29 multicellular tumor spheroids; assay: Resazurin assay, HT29 3D spheroids; type: cell-based, human; conditions: 96 h; for IC50: spheroids
Protocol: as §1
(§3) For growing multicellular tumor spheroids, 400 HCT116, 400 HT29 or 800 MCF-7 cells per well were plated into round-bottom ultra-low attachment 96-well plates (Corning, Glendale, AZ, USA) in the media described above and incubated at 37 °C for 96 h. Spheroids were treated with 10 µM of the two most cytotoxic compounds 3 and 4 for another 96 h. The diameters of the spheroids were measured with Cell^F software under a CKX41 Olympus microscope before treatment and in constant daily intervals over the 96 h treatment period. For statistical analysis the t-test with Welsh’s correction was implemented in GraphPad Prism software (Version 6.01).
(§4) For the resazurin assay in monolayer cultures, cells were seeded into 96-well microculture plates (CytoOne, tissue culture treated, Starlab, Hamburg, Germany) in densities of 2 × 10^3 HCT116, 2 × 10^3 HT29 and 4 × 10^3 MCF-7 cells per well (each in 100 µL). For tests in 3D cultures, spheroids were grown as described above. After 24 h (for monolayers) or 4 days (for spheroids) the test compounds in the appropriate medium were added in serial dilution to the plates to obtain a total volume of 200 µL/well. Wells without cells, containing medium and resazurin (Alfa Aesar, Thermo Fisher, Kandel, Germany) solution were used as blanks. After 96 h exposure 20 µL of the resazurin solution (440 µM) were added to each well, followed by a 4 h (2D) or 12 h (3D) incubation period. Resorufin fluorescence was quantified at 530 nm (and a reference wavelength of 620 nm) by using a microplate reader (Synergy HT, BioTek) with Gen5^TM 3.10 software (BioTek).

[3] = system: HT29 cells; assay: Annexin V-FITC/PI apoptosis assay, HT29; conditions: HT29, 24 h; for ∑apoptotic cells [%]: sum of early and late
[4] = system: HCT116 cells; assay: Resazurin assay, HCT116 2D monolayer; type: cell-based, human; conditions: 96 h
Protocol: as §1, §4

[5] = Solubility in PBS (1% DMSO); type: physicochemical
Protocol: Stock solutions in DMSO of compounds 1–10 were utilized to determine the solubility in PBS by adding 1 vol% of the stock solution to a suitable amount of PBS. […] UV/Vis data were recorded on a Perkin Elmer Lambda 650 UV/Vis Spectrophotometer with a Peltier element for temperature control.

[6] = system: MCF-7 multicellular tumor spheroids; assay: Resazurin assay, MCF-7 3D spheroids; type: cell-based, human; conditions: 96 h; for IC50: spheroids
Protocol: as §1, §3, §4

[7] = system: SW480 (colon carcinoma) cells; assay: MTT cytotoxicity assay, SW480 monolayer; type: cell-based, human; conditions: exposure time 96 h, mean ± SD
Protocol: as §1, §2

[8] = system: HT29 cells; assay: Resazurin assay, HT29 2D monolayer; type: cell-based, human; conditions: 96 h
Protocol: as §1, §4

[9] = system: MCF-7 cells; assay: Annexin V-FITC/PI apoptosis assay, MCF-7; conditions: MCF-7, 24 h; for ∑apoptotic cells [%]: sum of early and late
[10] = system: MCF-7 cells; assay: Resazurin assay, MCF-7 2D monolayer; type: cell-based, human; conditions: 96 h
Protocol: as §1, §4

Cc1occc(=S)c1[O-].F[P-](F)(F)(F)(F)F.[W+4].c1cc[cH-]c1.c1cc[cH-]c1 [Compound 2, Bis(η^5-cyclopentadienyl)[2-methyl-3-(oxo-κO)-4-(1H)-pyran-4-thionato-κS]tungsten(IV) hexafluorophosphate]
IC50 [1]: 24 ± 3 µM
ratio 3D/2D of IC50 values, HT29 [2]: > 3.8
IC50 [2]: > 200 µM
early apoptotic cells [%] AV+ / PI- ([3]; 200 µM): 3.9 ± 1.8%
late apoptotic cells [%] AV+ / PI+ ([3]; 200 µM): 6.1 ± 1.0%
necrotic cells [%] AV- / PI+ ([3]; 200 µM): 3.3 ± 2.4%
viable cells [%] AV- / PI- ([3]; 200 µM): 86.8 ± 2.4%
∑apoptotic cells [%] ([3]; 200 µM): 10%
IC50 [4]: 98 ± 12 µM
Solubility in PBS (1% DMSO) [5]: 250 µg/mL
ratio 3D/2D of IC50 values, MCF-7 [6]: > 3.0
IC50 [6]: > 200 µM
IC50 [7]: 36 ± 7 µM
IC50 [8]: 53 ± 9 µM
early apoptotic cells [%] AV+ / PI- ([9]; 200 µM): 7.4 ± 2.7%
late apoptotic cells [%] AV+ / PI+ ([9]; 200 µM): 22.7 ± 4.5%
necrotic cells [%] AV- / PI+ ([9]; 200 µM): 14.9 ± 8.3%
viable cells [%] AV- / PI- ([9]; 200 µM): 55.1 ± 10.1%
IC50 [10]: 66 ± 12 µM

F[P-](F)(F)(F)(F)F.O=c1c([O-])c(-c2ccc(Cl)cc2)oc2ccccc12.[W+4].c1cc[cH-]c1.c1cc[cH-]c1 [Compound 3, Bis(η^5-cyclopentadienyl)[2-(4-chlorophenyl)-3-(oxo-κO)-4(H)-chromen-4-oato-κO]tungsten(IV) hexafluorophosphate]
IC50 [1]: 2.7 ± 0.4 µM
ratio 3D/2D of IC50 values, HT29 [2]: 5.1
IC50 [2]: 86 ± 2 µM
early apoptotic cells [%] AV+ / PI- ([3]; 2 µM): 4.6 ± 4.1%
late apoptotic cells [%] AV+ / PI+ ([3]; 2 µM): 7.2 ± 3.8%
necrotic cells [%] AV- / PI+ ([3]; 2 µM): 5.1 ± 4.2%
viable cells [%] AV- / PI- ([3]; 2 µM): 83.0 ± 3.8%
∑apoptotic cells [%] ([3]; 2 µM): 11.8%
early apoptotic cells [%] AV+ / PI- ([3]; 20 µM): 8.6 ± 2.5%
late apoptotic cells [%] AV+ / PI+ ([3]; 20 µM): 11.1 ± 1.0%
necrotic cells [%] AV- / PI+ ([3]; 20 µM): 5.4 ± 1.2%
viable cells [%] AV- / PI- ([3]; 20 µM): 74.9 ± 3.3%
∑apoptotic cells [%] ([3]; 20 µM): 19.7%
early apoptotic cells [%] AV+ / PI- ([3]; 200 µM): 0.8 ± 0.5%
late apoptotic cells [%] AV+ / PI+ ([3]; 200 µM): 82.2 ± 4.1%
necrotic cells [%] AV- / PI+ ([3]; 200 µM): 14.9 ± 2.8%
viable cells [%] AV- / PI- ([3]; 200 µM): 2.2 ± 1.3%
IC50 [4]: 9.2 ± 1.4 µM
Solubility in PBS (1% DMSO) [5]: 30 µg/mL
ratio 3D/2D of IC50 values, MCF-7 [6]: 6.8 and 7.0
IC50 [6]: 44 ± 1 µM
IC50 [7]: 5.4 ± 1.1 µM
IC50 [8]: 17 ± 4 µM
early apoptotic cells [%] AV+ / PI- ([9]; 2 µM): 1.4 ± 0.5%
late apoptotic cells [%] AV+ / PI+ ([9]; 2 µM): 4.3 ± 1.5%
necrotic cells [%] AV- / PI+ ([9]; 2 µM): 2.5 ± 0.6%
viable cells [%] AV- / PI- ([9]; 2 µM): 91.8 ± 1.9%
∑apoptotic cells [%] ([9]; 2 µM): 5.6%
early apoptotic cells [%] AV+ / PI- ([9]; 10 µM): 1.4 ± 0.3%
late apoptotic cells [%] AV+ / PI+ ([9]; 10 µM): 7.7± 4.4%
necrotic cells [%] AV- / PI+ ([9]; 10 µM): 4.1 ± 1.8%
viable cells [%] AV- / PI- ([9]; 10 µM): 86.9 ± 5.9%
∑apoptotic cells [%] ([9]; 10 µM): 9.1%
early apoptotic cells [%] AV+ / PI- ([9]; 20 µM): 1.5 ± 0.6%
late apoptotic cells [%] AV+ / PI+ ([9]; 20 µM): 11.4 ± 0.7%
necrotic cells [%] AV- / PI+ ([9]; 20 µM): 8.7 ± 0.3%
viable cells [%] AV- / PI- ([9]; 20 µM): 78.5 ± 1.0%
∑apoptotic cells [%] ([9]; 20 µM): 12.9%
early apoptotic cells [%] AV+ / PI- ([9]; 50 µM): 1.3 ± 0.5%
late apoptotic cells [%] AV+ / PI+ ([9]; 50 µM): 16.2 ± 2.5%
necrotic cells [%] AV- / PI+ ([9]; 50 µM): 25 ± 0.9%
viable cells [%] AV- / PI- ([9]; 50 µM): 57.7 ± 2.2%
IC50 [10]: 6.5 ± 1.8 µM
